Like-named read-outs stand apart in the source and are kept apart here. Positions of bridges follow the written chain, without caps; N, C: chain ends. Non-standard residues stand in square brackets, D forms with d. Residues, ends and D or L forms follow the SMILES beside them.
Experiment: Biodistribution in B16/F1 melanoma-bearing C57 mice
Format: in vivo
Settings: female, C57, mouse, iv, total radioactivity; for tissue uptake at 2 h / tissue uptake dose at 2 h: 2 h post-injection
Method: All the animal studies were conducted in compliance with Institutional Animal Care and Use Committee approval. The pharmacokinetics of ^99mTc-RGD-Lys-(Arg^11)CCMSH was determined in B16/F1 melanoma-bearing C57 female mice (Harlan, Indianapolis, Ind.). C57 mice were subcutaneously inoculated on the right flank with 1×10^6 B16/F1 cells. The weight of tumors reached approximately 0.2 g 10 days post cell inoculation. Each melanoma-bearing mouse was injected with 0.037 MBq of ^99mTc-RGD-Lys-(Arg^11)CCMSH via the tail vein. Groups of 5 mice were sacrificed at 0.5, 2, 4 and 24 h post-injection, and tumors and organs of interest were harvested, weighed and counted. Blood values were taken as 6.5% of the whole-body weight. The MC1 receptor specificity of the tumor uptake was determined at 2 h post-injection by co-injecting ^99mTc-RGD-Lys-(Arg^11)CCMSH with 10 μg (6.1 nmol) of unlabeled NDP-MSH, a linear α-MSH peptide analogue with picomolar affinity for the MC1 receptors present on murine melanoma cells. The co-injection of 3.5 μg (6.1 nmol) of RGD peptide was performed to determine the αvβ3 integrin specificity of the tumor uptake 2 h post-injection. Statistical analysis was performed using the Student's t-test for unpaired data.
All the animal studies were conducted in compliance with Institutional Animal Care and Use Committee approval. The pharmacokinetics of ^99mTc-RGD-Arg-(Arg^11)CCMSH was determined in B16/F1 melanoma-bearing C57 female mice (Harlan, Indianapolis, Ind.). C57 mice were subcutaneously inoculated on the right flank with 1×10^6 B16/F1 cells. The weight of tumors reached approximately 0.2 g 10 days post cell inoculation. Each melanoma-bearing mouse was injected with 0.037 MBq of ^99mTc-RGD-Arg-(Arg^11)CCMSH via the tail vein. Groups of 5 mice were sacrificed at 0.5, 2, 4 and 24 h post-injection, and tumors and organs of interest were harvested, weighed and counted. Blood values were taken as 6.5% of the whole-body weight. The MC1 receptor specificity of the tumor uptake was determined at 2 h post-injection by co-injecting ^99mTc-RGD-Arg-(Arg^11)CCMSH with 10 μg (6.1 nmol) of unlabeled NDP-MSH. The co-injection of 3.5 μg (6.1 nmol) of RGD peptide was performed to determine the αvβ3 integrin specificity of the tumor uptake at 2 h post-injection.

Q: Which results are given for CC(C)[C@H](NC(=O)[C@@H]1CCCN1C(=O)[C@H](CCCNC(=N)N)NC(=O)[C@H](CS)NC(=O)[C@H](Cc1c[nH]c2ccccc12)NC(=O)[C@H](CCCNC(=N)N)NC(=O)[C@@H](Cc1ccccc1)NC(=O)[C@H](Cc1c[nH]cn1)NC(=O)[C@H](CCC(=O)O)NC(=O)[C@H](CS)NC(=O)[C@H](CS)NC(=O)[C@H](CCCNC(=N)N)NC(=O)[C@@H]1CC(=O)N[C@@H](CCCNC(=N)N)C(=O)NCC(=O)N[C@@H](CC(=O)O)C(=O)N[C@H](Cc2ccc(O)cc2)C(=O)N1)C(N)=O [^99mTc-RGD-Arg-(Arg^11)CCMSH, metal not drawn] (RGD[dY]DRCCEH[dF]RWCRPV-NH2; lactam N-5)?
A: tissue uptake at 0.5 h (blood, 0.037 MBq, 0.5 h post-injection, read-out: Blood, Percentage Injected Dose/gram): 3.64 ± 0.69 %ID/g; tissue uptake at 2 h (blood, 0.037 MBq, read-out: Blood, Percentage Injected Dose/gram): 0.55 ± 0.47 %ID/g; tissue uptake at 4 h (blood, 0.037 MBq, 4 h post-injection, read-out: Blood, Percentage Injected Dose/gram): 0.71 ± 0.41 %ID/g; tissue uptake at 24 h (blood, 0.037 MBq, 24 h post-injection, read-out: Blood, Percentage Injected Dose/gram): 0.24 ± 0.14 %ID/g; tissue uptake at 2 h (blood, NDP blockade (10 μg NDP-MSH co-injected), read-out: Blood, Percentage Injected Dose/gram): 0.47 ± 0.29 %ID/g; tissue uptake at 2 h (blood, RGD blockade (3.5 μg RGD co-injected), read-out: Blood, Percentage Injected Dose/gram): 0.04 ± 0.01 %ID/g; tissue uptake at 0.5 h (bone, 0.037 MBq, 0.5 h post-injection, read-out: Bone, Percentage Injected Dose/gram): 2.01 ± 0.19 %ID/g; tissue uptake at 2 h (bone, 0.037 MBq, read-out: Bone, Percentage Injected Dose/gram): 0.57 ± 0.15 %ID/g; tissue uptake at 4 h (bone, 0.037 MBq, 4 h post-injection, read-out: Bone, Percentage Injected Dose/gram): 0.97 ± 0.22 %ID/g; tissue uptake at 24 h (bone, 0.037 MBq, 24 h post-injection, read-out: Bone, Percentage Injected Dose/gram): 0.9 ± 0.39 %ID/g; tissue uptake at 2 h (bone, NDP blockade (10 μg NDP-MSH co-injected), read-out: Bone, Percentage Injected Dose/gram): 0.98 ± 0.39 %ID/g; tissue uptake at 2 h (bone, RGD blockade (3.5 μg RGD co-injected), read-out: Bone, Percentage Injected Dose/gram): 0.52 ± 0.42 %ID/g; tissue uptake at 0.5 h (brain, 0.037 MBq, 0.5 h post-injection, read-out: Brain, Percentage Injected Dose/gram): 0.16 ± 0.02 %ID/g; tissue uptake at 2 h (brain, 0.037 MBq, read-out: Brain, Percentage Injected Dose/gram): 0.06 ± 0.02 %ID/g; tissue uptake at 4 h (brain, 0.037 MBq, 4 h post-injection, read-out: Brain, Percentage Injected Dose/gram): 0.04 ± 0.03 %ID/g; tissue uptake at 24 h (brain, 0.037 MBq, 24 h post-injection, read-out: Brain, Percentage Injected Dose/gram): 0.06 ± 0.02 %ID/g; tissue uptake at 2 h (brain, NDP blockade (10 μg NDP-MSH co-injected), read-out: Brain, Percentage Injected Dose/gram): 0.06 ± 0.01 %ID/g; tissue uptake at 2 h (brain, RGD blockade (3.5 μg RGD co-injected), read-out: Brain, Percentage Injected Dose/gram): 0.04 ± 0.01 %ID/g; tissue uptake at 0.5 h (heart, 0.037 MBq, 0.5 h post-injection, read-out: Heart, Percentage Injected Dose/gram): 2.36 ± 0.37 %ID/g; tissue uptake at 2 h (heart, 0.037 MBq, read-out: Heart, Percentage Injected Dose/gram): 0.73 ± 0.27 %ID/g; tissue uptake at 4 h (heart, 0.037 MBq, 4 h post-injection, read-out: Heart, Percentage Injected Dose/gram): 0.53 ± 0.19 %ID/g; tissue uptake at 24 h (heart, 0.037 MBq, 24 h post-injection, read-out: Heart, Percentage Injected Dose/gram): 0.34 ± 0.07 %ID/g; tissue uptake at 2 h (heart, with RGD peptide, 3.5 μg (6.1 nmol) co-injected, RGD blockade (3.5 μg RGD co-injected), read-out: Heart, Percentage Injected Dose/gram): 0.55 ± 0.22 %ID/g; tissue uptake at 2 h (heart, with unlabeled NDP-MSH, 10 μg (6.1 nmol) co-injected, NDP blockade (10 μg NDP-MSH co-injected), read-out: Heart, Percentage Injected Dose/gram): 0.61 ± 0.21 %ID/g; tissue uptake dose at 0.5 h (intestines, 0.037 MBq, 0.5 h post-injection, read-out: Intestines, Percentage Injected Dose): 3.19 ± 0.22 %ID; tissue uptake dose at 2 h (intestines, 0.037 MBq, read-out: Intestines, Percentage Injected Dose): 2.57 ± 0.58 %ID; tissue uptake dose at 4 h (intestines, 0.037 MBq, 4 h post-injection, read-out: Intestines, Percentage Injected Dose): 2.62 ± 0.57 %ID; tissue uptake dose at 24 h (intestines, 0.037 MBq, 24 h post-injection, read-out: Intestines, Percentage Injected Dose): 1.01 ± 0.11 %ID; tissue uptake dose at 2 h (intestines, NDP blockade (10 μg NDP-MSH co-injected), read-out: Intestines, Percentage Injected Dose): 2.34 ± 0.52 %ID; tissue uptake dose at 2 h (intestines, RGD blockade (3.5 μg RGD co-injected), read-out: Intestines, Percentage Injected Dose): 1.79 ± 0.58 %ID; tissue uptake at 0.5 h (kidneys, 0.037 MBq, 0.5 h post-injection, read-out: Kidneys, Percentage Injected Dose/gram): 37.2 ± 4.72 %ID/g; tissue uptake at 2 h (kidneys, 0.037 MBq, read-out: Kidneys, Percentage Injected Dose/gram): 43 ± 8.14 %ID/g; tissue uptake at 4 h (kidneys, 0.037 MBq, 4 h post-injection, read-out: Kidneys, Percentage Injected Dose/gram): 36.6 ± 11.7 %ID/g; tissue uptake at 24 h (kidneys, 0.037 MBq, 24 h post-injection, read-out: Kidneys, Percentage Injected Dose/gram): 16.2 ± 4.01 %ID/g; tissue uptake at 2 h (kidneys, NDP blockade (10 μg NDP-MSH co-injected), read-out: Kidneys, Percentage Injected Dose/gram): 34.8 ± 8.46 %ID/g; tissue uptake at 2 h (kidneys, RGD blockade (3.5 μg RGD co-injected), read-out: Kidneys, Percentage Injected Dose/gram): 38.5 ± 7.45 %ID/g; tissue uptake at 0.5 h (liver, 0.037 MBq, 0.5 h post-injection, read-out: Liver, Percentage Injected Dose/gram): 4.21 ± 1.04 %ID/g; tissue uptake at 2 h (liver, 0.037 MBq, read-out: Liver, Percentage Injected Dose/gram): 3.58 ± 1.08 %ID/g; tissue uptake at 4 h (liver, 0.037 MBq, 4 h post-injection, read-out: Liver, Percentage Injected Dose/gram): 4.93 ± 0.38 %ID/g; tissue uptake at 24 h (liver, 0.037 MBq, 24 h post-injection, read-out: Liver, Percentage Injected Dose/gram): 1.89 ± 0.36 %ID/g; tissue uptake at 2 h (liver, NDP blockade (10 μg NDP-MSH co-injected), read-out: Liver, Percentage Injected Dose/gram): 2.87 ± 0.34 %ID/g; tissue uptake at 2 h (liver, RGD blockade (3.5 μg RGD co-injected), read-out: Liver, Percentage Injected Dose/gram): 2.3 ± 0.22 %ID/g; tissue uptake at 0.5 h (lung, 0.037 MBq, 0.5 h post-injection, read-out: Lung, Percentage Injected Dose/gram): 7.55 ± 1.29 %ID/g; tissue uptake at 2 h (lung, 0.037 MBq, read-out: Lung, Percentage Injected Dose/gram): 2.05 ± 0.52 %ID/g; tissue uptake at 4 h (lung, 0.037 MBq, 4 h post-injection, read-out: Lung, Percentage Injected Dose/gram): 1.01 ± 0.41 %ID/g; tissue uptake at 24 h (lung, 0.037 MBq, 24 h post-injection, read-out: Lung, Percentage Injected Dose/gram): 0.76 ± 0.14 %ID/g; tissue uptake at 2 h (lung, NDP blockade (10 μg NDP-MSH co-injected), read-out: Lung, Percentage Injected Dose/gram): 1.42 ± 0.31 %ID/g; tissue uptake at 2 h (lung, RGD blockade (3.5 μg RGD co-injected), read-out: Lung, Percentage Injected Dose/gram): 1.21 ± 0.5 %ID/g; tissue uptake at 0.5 h (muscle, 0.037 MBq, 0.5 h post-injection, read-out: Muscle, Percentage Injected Dose/gram): 1.79 ± 1.14 %ID/g; tissue uptake at 2 h (muscle, 0.037 MBq, read-out: Muscle, Percentage Injected Dose/gram): 0.21 ± 0.12 %ID/g; tissue uptake at 4 h (muscle, 0.037 MBq, 4 h post-injection, read-out: Muscle, Percentage Injected Dose/gram): 0.32 ± 0.25 %ID/g; tissue uptake at 24 h (muscle, 0.037 MBq, 24 h post-injection, read-out: Muscle, Percentage Injected Dose/gram): 0.25 ± 0.05 %ID/g; tissue uptake at 2 h (muscle, NDP blockade (10 μg NDP-MSH co-injected), read-out: Muscle, Percentage Injected Dose/gram): 0.5 ± 0.12 %ID/g; tissue uptake at 2 h (muscle, RGD blockade (3.5 μg RGD co-injected), read-out: Muscle, Percentage Injected Dose/gram): 0.28 ± 0.2 %ID/g; tissue uptake (normal organs except kidneys, 0.037 MBq, after 2 h post-injection, read-out: Normal organ uptakes except for the kidneys): < 3.6 %ID/g; tissue uptake at 0.5 h (pancreas, 0.037 MBq, 0.5 h post-injection, read-out: Pancreas, Percentage Injected Dose/gram): 1.02 ± 0.36 %ID/g; tissue uptake at 2 h (pancreas, 0.037 MBq, read-out: Pancreas, Percentage Injected Dose/gram): 0.36 ± 0.2 %ID/g; tissue uptake at 4 h (pancreas, 0.037 MBq, 4 h post-injection, read-out: Pancreas, Percentage Injected Dose/gram): 0.37 ± 0.12 %ID/g; tissue uptake at 24 h (pancreas, 0.037 MBq, 24 h post-injection, read-out: Pancreas, Percentage Injected Dose/gram): 0.19 ± 0.09 %ID/g; tissue uptake at 2 h (pancreas, NDP blockade (10 μg NDP-MSH co-injected), read-out: Pancreas, Percentage Injected Dose/gram): 0.37 ± 0.22 %ID/g; tissue uptake at 2 h (pancreas, RGD blockade (3.5 μg RGD co-injected), read-out: Pancreas, Percentage Injected Dose/gram): 0.32 ± 0.17 %ID/g; tissue uptake at 0.5 h (skin, 0.037 MBq, 0.5 h post-injection, read-out: Skin, Percentage Injected Dose/gram): 4.55 ± 1.01 %ID/g

Reference: patent publication US9005575B2, “Arg-Gly-Asp-conjugated alpha-melanocyte stimulating hormone hybrid peptide for use in diagnosing and treating melanoma, including metastatic melanoma and methods related to same” (STC.UNM, priority 2009, dated 2015)
